Assay results published in patent publication US20230183243A1, “HETEROARYL DERIVATIVES AND PHARMACEUTICAL COMPOSITION COMPRISING SAME AS ACTIVE INGREDIENT” (VORONOI INC., priority 2019, published 2023).

What was measured:
TTK = molecular target: T1, TTK (Homo sapiens, UniProt P33981); test: TTK enzyme activity, ADP-Glo kinase assay; assay type: biochemical; set-up: purchased SignalChem T20-10G; settings: purified human TTK, ATP 10 μM, 25° C., 2 hours
T1 sequence (P33981 1-857): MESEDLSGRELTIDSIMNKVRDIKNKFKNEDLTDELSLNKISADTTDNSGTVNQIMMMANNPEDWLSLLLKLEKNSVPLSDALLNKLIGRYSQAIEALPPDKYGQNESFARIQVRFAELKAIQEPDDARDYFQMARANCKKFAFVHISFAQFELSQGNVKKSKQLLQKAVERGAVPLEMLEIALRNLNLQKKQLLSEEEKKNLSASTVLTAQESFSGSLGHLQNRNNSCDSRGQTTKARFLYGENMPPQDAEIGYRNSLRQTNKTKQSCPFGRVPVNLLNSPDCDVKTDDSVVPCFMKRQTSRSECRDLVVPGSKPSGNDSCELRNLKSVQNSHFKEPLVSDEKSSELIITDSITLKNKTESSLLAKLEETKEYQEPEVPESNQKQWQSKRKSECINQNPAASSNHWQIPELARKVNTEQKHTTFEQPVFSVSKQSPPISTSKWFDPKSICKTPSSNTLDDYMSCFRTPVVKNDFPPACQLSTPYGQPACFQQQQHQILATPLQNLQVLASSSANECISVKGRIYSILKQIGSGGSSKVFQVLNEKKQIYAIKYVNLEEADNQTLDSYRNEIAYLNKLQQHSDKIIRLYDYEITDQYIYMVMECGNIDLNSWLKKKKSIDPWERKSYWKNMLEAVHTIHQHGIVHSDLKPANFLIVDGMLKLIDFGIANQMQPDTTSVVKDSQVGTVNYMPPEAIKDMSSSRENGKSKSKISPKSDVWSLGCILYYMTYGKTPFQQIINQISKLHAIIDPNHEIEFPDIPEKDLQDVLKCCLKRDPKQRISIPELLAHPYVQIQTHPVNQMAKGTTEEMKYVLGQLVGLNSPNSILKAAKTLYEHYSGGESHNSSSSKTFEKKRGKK
Protocol: To evaluate an inhibitory activity of the compound according to the present invention against TTK (MPS1), an experiment was performed as follows.
Each of the Example compounds was reacted with a purified human TTK (SignalChem #T20-10G) enzyme to evaluate an ability to inhibit an enzyme using a method as described below. A composition of 40 mM Tris-HCl (pH 7.4), 20 mM MgCl2, 0.5 mg/mL BSA, and 50 μM DTT was used as a reaction buffer, and all reactions of test substances were performed in the reaction buffer. […] In the test, purified ATP (10 μM) and an enzyme substrate (0.2 μg) were reacted with a human TTK (25 ng) enzyme at 25° C. for 2 hours, and the enzyme activity was determined using an in vitro ADP-Glo™ kinase assay (Promega). […] The degree of inhibition of the enzyme activity according to the treatment concentration of each of the compounds was calculated based on the fluorescence of the enzyme activity of the solvent control which was not treated with the compound.

MDA-MB-231 cells = test: Inhibition of proliferation of triple-negative breast cancer cells, CellTiter-Glo; assay type: cell-based; settings: Homo sapiens, 120 h; MDA-MB-231, cultured for 5 days
Protocol: Specifically, the following test was performed in order to evaluate the inhibitory activity of the compound according to the present invention against the cell proliferation in triple-negative breast cancer cells (TNBCs).
Cells were seeded in 180 μL of a culture broth at a density of 2,000 to 3,000 cells/well in a white clear bottom 96-well plate (Corning) according to the growth ability of each cell, and then cultured for 24 hours under conditions of 5% CO2 and 37° C. Thereafter, the compound was prepared by diluting a 10 mM stock solution three-fold with 100% DMSO at a total of 12 concentrations so that a peak concentration of the compound was in a range of 10 mM to 0.05 μM, and the diluted compound was then diluted in each cell culture medium so that a final concentration of the compound was in a range of 100 μM to 0.5 nM. 20 μL of a diluted solution diluted with a medium was added to the cell solution in which cells were seeded in the 96-well plate on the previous day so that a final concentration of the diluted solution was in a range of 10 μM to 0.05 nM. Each of the cells was cultured for 5 days. To check cell viability, a mixture provided in a CellTiter-Glo® Luminescent Cell Viability Assay Kit (Promega) was added to each of the cultured cell media, and cultured for another 10 minutes under a condition of 37° C. Then, a degree of luminescence (fluorescence) was measured. A degree of inhibition of the cell growth according to the treatment concentration of each of the compounds was calculated based on the fluorescence of the solvent control cells which were not treated with the compound.

Compound	IC50 (TTK) [nM]	GI50 (MDA-MB-231 cells) [nM]
COc1cc(-c2c(C)noc2C)ccc1Nc1nc(NC2CCCCC2)c2c(C#N)c[nH]c2n1 [Example 18, 4-(cyclohexylamino)-2-((4-(3,5-dimethylisoxazol-4-yl)-2-methoxyphenyl)amino)-7H-pyrrolo[2,3-d] pyrimidine-5-carbonitrile]	< 50	< 100
CCOc1cc(-c2nncn2C)ccc1Nc1nc(NCCS(C)(=O)=O)c2c(C#N)c[nH]c2n1 [Example 14, 2-((2-ethoxy-4-(4-methyl-4H-1,2,4-triazol-3-yl)phenyl)amino)-4-((2-(methylsulfonyl)ethyl)amino)-7H-pyrrolo[2,3-d] pyrimidine-5-carbonitrile]	< 50	100 to 1000
COc1cc(-c2ncnn2C)ccc1Nc1nc(NC2CCCCC2)c2c(C#N)c[nH]c2n1 [Example 26, 4-(cyclohexylamino)-2-((2-methoxy-4-(l-methyl-1H-1,2,4-triazol-5-yl)phenyl)amino)-7H-pyrrolo[2,3-d] pyrimidine-5-carbonitrile]	50 to 200	< 100
COc1cc(-c2cncn2C)ccc1Nc1nc(NC2CCCC2)c2c(C#N)c[nH]c2n1 [Example 30, 4-(cyclopentylamino)-2-((2-methoxy-4-(1-methyl-1H-imidazol-5-yl)phenyl)amino)-7H-pyrrolo[2,3-d] pyrimidine-5-carbonitrile]	< 50	< 100
COc1cc(N2CCCC2=O)ccc1Nc1nc(O[C@H]2CC[C@@](C)(O)CC2)c2c(C#N)c[nH]c2n1 [Example 32, 4-(((1s,4s)-4-hydroxy-4-methylcyclohexyl)oxy)-2-((2-methoxy-4-(2-oxopyrrolidin-1-yl)phenyl)amino)-7H-pyrrolo[2,3-d] pyrimidine-5-carbonitrile 2,2,2-trifluoroacetate]	< 50	< 100
N#Cc1c[nH]c2nc(Nc3ccc(-c4ccc(CN5CCN(C6CC6)CC5)cc4)cc3)nc(NC3CCCCC3)c12 [Example 22, 4-(cyclohexylamino)-2-((4′-((4-cyclopropylpiperazin-l-yl)methyl)-[1,1′-biphenyl]-4-yl)amino)-7H-pyrrolo[2,3-d] pyrimidine-5-carbonitrile]	< 50	100 to 1000
Cn1nccc1-c1ccc(Nc2nc(NC3CCCCC3)c3c(C#N)c[nH]c3n2)c2c1OCCO2 [Example 39, 4-(cyclohexylamino)-2-((8-(1-methyl-1H-pyrazol-5-yl)-2,3-dihydrobenzo[b][1,4]dioxin-5-yl)amino)-7H-pyrrolo[2,3-d] pyrimidine-5-carbonitrile]	< 50	< 100
COc1cc(-c2ccc(F)nc2)ccc1Nc1nc(NC2CCCCC2)c2c(C#N)c[nH]c2n1 [Example 24, 4-(cyclohexylamino)-2-((4-(6-fluoropyridin-3-yl)-2-methoxyphenyl)amino)-7H-pyrrolo[2,3-d] pyrimidine-5-carbonitrile]	< 50	< 100
COc1cc(-c2cnn(C3COC3)c2)ccc1Nc1nc(NC2CCCCC2)c2c(C#N)c[nH]c2n1 [Example 20, 4-(cyclohexylamino)-2-((2-methoxy-4-(1-(oxetan-3-yl)-1H-pyrazol-4-yl)phenyl)amino)-7H-pyrrolo[2,3-d] pyrimidine-5-carbonitrile]	< 50	< 100
COc1cc(-c2ccn(C)n2)ccc1Nc1nc(NC2CCCC2)c2c(C#N)c[nH]c2n1 [Example 2, 4-(cyclopentylamino)-2-((2-methoxy-4-(1-methyl-1H-pyrazol-3-yl)phenyl)amino)-7H-pyrrolo[2,3-d] pyrimidine-5-carbonitrile]	< 50	< 100
COc1cc(-c2nnc3n2CCC3)ccc1Nc1nc(NC2CCCCC2)c2c(C#N)c[nH]c2n1 [Example 31, 4-(cyclohexylamino)-2-((4-(6,7-dihydro-5H-pyrrolo[2,1-c] [1,2,4]triazol-3-yl)-2-methoxyphenyl)amino)-7H-pyrrolo[2,3-d] pyrimidine-5-carbonitrile]	< 50	< 100

Other lines, results leading:

IC50 (TTK) [nM]	GI50 (MDA-MB-231 cells) [nM]	Compound
< 50	> 1000	COc1cc(N2CCCC2=O)ccc1Nc1nc(NC2CCC2)c2c(C#N)c[nH]c2n1 [Example 69, 4-(cyclobutylamino)-2-((2-methoxy-4-(2-oxopyrrolidin-1-yl)phenyl)amino)-7H-pyrrolo[2,3-d] pyrimidine-5-carbonitrile]
< 50	< 100	CCCCNc1nc(Nc2ccc(N3CCCC3=O)cc2OC)nc2[nH]cc(C#N)c12 [Example 67, 4-(butylamino)-2-((2-methoxy-4-(2-oxopyrrolidin-1-yl)phenyl)amino)-7H-pyrrolo[2,3-d] pyrimidine-5-carbonitrile]
< 50	> 1000	COc1cc(N2CCCC2=O)ccc1Nc1nc(NCC2CCC2)c2c(C#N)c[nH]c2n1 [Example 70, 4-((cyclobutylmethyl)amino)-2-((2-methoxy-4-(2-oxopyrrolidin-1-yl)phenyl)amino)-7H-pyrrolo[2,3-d] pyrimidine-5-carbonitrile]
< 50	100 to 1000	COCC(C)(C)Nc1nc(Nc2ccc(N3CCCC3=O)cc2OC)nc2[nH]cc(C#N)c12 [Example 72, 4-((1-methoxy-2-methylpropan-2-yl)amino)-2-((2-methoxy-4-(2-oxopyrrolidin-1-yl)phenyl)amino)-7H-pyrrolo[2,3-d] pyrimidine-5-carbonitrile]
50 to 200	< 100	COc1cc(-c2ccc(F)nc2)ccc1Nc1nc(NC2CCCC2)c2c(C#N)c[nH]c2n1 [Example 42, 4-(cyclopentylamino)-2-((4-(6-fluoropyridin-3-yl)-2-methoxyphenyl)amino)-7H-pyrrolo[2,3-d] pyrimidine-5-carbonitrile]
200 to 1000	> 1000	CCOc1cc(-c2nncn2C)ccc1Nc1nc(C2CC2)c2c(C#N)c[nH]c2n1 [Example 46, 4-cyclopropyl-2-((2-ethoxy-4-(4-methyl-4H-1,2,4-triazol-3-yl)phenyl)amino)-7H-pyrrolo[2,3-d] pyrimidine-5-carbonitrile]
50 to 200	< 100	COc1cc(-c2c(C)noc2C)ccc1Nc1nc(NC2CCCC2)c2c(C#N)c[nH]c2n1 [Example 44, 4-(cyclopentylamino)-2-((4-(3,5-dimethylisoxazol-4-yl)-2-methoxyphenyl)amino)-7H-pyrrolo[2,3-d] pyrimidine-5-carbonitrile]
< 50	< 100	COc1cc(N2CCCC2=O)ccc1Nc1nc(NCC(C)C)c2c(C#N)c[nH]c2n1 [Example 66, 4-(isobutylamino)-2-((2-methoxy-4-(2-oxopyrrolidin-1-yl)phenyl)amino)-7H-pyrrolo[2,3-d] pyrimidine-5-carbonitrile]
< 50	< 100	COc1cc(N2CCCC2=O)ccc1Nc1nc(NC(C)C)c2c(C#N)c[nH]c2n1 [Example 65, 4-(isopropylamino)-2-((2-methoxy-4-(2-oxopyrrolidin-1-yl)phenyl)amino)-7H-pyrrolo[2,3-d] pyrimidine-5-carbonitrile]
